This is an account of results in patent publication US20150359668A1, “LIGHT DELIVERY DEVICE AND RELATED COMPOSITIONS, METHODS AND SYSTEMS” (CALIFORNIA INSTITUTE OF TECHNOLOGY, priority 2011, published 2015).

Series [1] relates to cornea. To be noted: fluorescein value used for riboflavin in earlier studies; cited from earlier work.
The conditions of series [2]: reaction with singlet oxygen; cited from earlier work.
For series [3], the system named is cornea. The experiment in a line: drug diffusion into the cornea of intact eyes (extraction assay, diffusion model fit). The protocol:
Siena for Medical Science supplied porcine eyes from 3-4 month old swine. Eyes were stored in ocular balanced saline solution on ice until use within 48 hours post mortem. […] The epithelial cell layer was removed by scraping with a scalpel. […] The drug solution containing the eye was gently agitated using a rocker for a specified “drug contact time” (tc,cornea ranging from 0 to 4 hours). After the drug contact time, the eye was removed from the drug solution, and excess solution on the cornea was dabbed away with a Kimwipe. The eye was dissected using a scalpel blade and a pair of scissors to cut around the corneoscleral limbus to separate out the cornea. The tissue section was placed onto a trephine punch to cut out a 9.5-mm diameter corneal cross-section.
(§1) Quantitative assay of the amount of drug delivered—Experiments were performed for five drug contact times (four samples each): for the cornea, tc,cornea=0.25, 0.5, 1, 2, and 4 hrs, and for the sclera, tc,sclera=0.5, 2, 4, 7.5, and 120 hrs. Each experiment was repeated four times. For each experiment, the 9.5-mm diameter tissue cross-section obtained as described above was placed into a 50 mL centrifuge tube and immersed in 50 mL of extractant (doubled-distilled water for cornea or DPBS for sclera) then placed on a rocker to extract the drug molecules (FIG. 40). […] After a first extraction time te,1 of 8 hours, the tissue specimen was then transferred into another 50 mL of fresh extractant and the extract was retained for analysis.
(§2) The concentration of the drug in the extract was determined using fluorimetry. […] The fluorescence of each extract was measured and concentration was determined based on calibration curves prepared for each compound using a series of solutions with known concentrations. The extraction process was repeated using successively longer extraction times until there was no detectable fluorescence in the supernatant.
(§3) Porcine eyes closely resemble a sphere with diameter ˜25 mm. The cornea and sclera are the targeted tissues and both have thicknesses that are on the order of 1 mm. Since these tissue thicknesses are less than a tenth of the diameter of the eye, they are modeled as semi-infinite slabs. Each tissue is approximated as a uniform material. Fick's diffusion equation is given by
(§4) where C(z,t) is the drug concentration inside the tissue, t is the time since the exterior surface of the tissue was placed in contact with the drug solution, z is the distance into the tissue from its exterior surface, and D is the diffusion coefficient. […] For short contact times, the concentration falls to zero before the profile reaches the endothelium. For longer contact times, the boundary condition that the concentration falls to zero far into the system is still used as a first approximation (neglecting the change in material properties at the endothelium and neglects different transport processes in the aqueous or vitreous).
(§5) where area represents the cross-sectional area of the tissue sample and L is the thickness of the tissue sample. At long drug contact time, the predicted concentration changes very slowly and approaches a value governed by the partition coefficient.
(§6) with i being the individual data point and N being the total data points used for the fit. Data fitting was performed by writing a program in MATLAB software.

Series [4] concerns sclera. The series is described as follows: drug diffusion into the sclera of intact eyes (extraction assay, diffusion model fit).
Description: Orbital tissues were removed with scissors to expose the sclera. […] After the contact time, the eye was removed from the drug solution, and excess solution on the sclera was dabbed away with a Kimwipe. The eye was dissected using a scalpel blade and a pair of scissors to obtain a posterior scleral section on the temporal side near the optic nerve. The tissue section was placed onto a trephine punch to cut out a 9.5-mm diameter cross-section.
as §1, §2, §3, §4, §5, §6

The test system of series [5] is cornea. To be noted: sodium azide added to the riboflavin treatment solution; cited from earlier work.
For series [6] the following is noted: physiological pH; cited from earlier work.
The test system of series [7] is keratocytes. To be noted: human, in vivo; cited from earlier work.
Series [8] concerns posterior globe. To be noted: rabbit, in vivo; cited from earlier work.
The subject of series [9] is collagen gel. The series is described as follows: collagen gel photorheology: storage modulus during photo-activated cross-linking. Conditions: for cross-linking rate as % of the rate without singlet oxygen quenchers: in air.
For series [10], the system named is sclera. To be noted: subconjunctival delivery; cited from earlier work.
In series [11] the test system is sclera. Conditions: cited from earlier work.
Setting [12] is: 0.02% eosin Y or 0.1% riboflavin, 0 mW/cm^2.

With `O=C1OC2(c3ccc(O)cc3Oc3cc(O)ccc32)c2ccccc21` [fluorescein], the “diffusion coefficient, D” value in series [1] is recorded as 65 μm^2/s.
Turning to `N[C@@H](Cc1c[nH]c2ccccc12)C(=O)O` [Tryptophan], the “k1O2 × 10^−7 M^−1s^−1” value in series [2] is given as 1.3-3 × 10^−7 M^−1s^−1.
“riboflavin-5′-monophosphate [reference compound]”: in series [3], the “diffusion coefficient without the binding effect, Dab” value is given as 134 μm^2/s; the “drug contact time at which delivered amount levels off” value worked out at 2 h; the “drug in second extract, % of the first extract” value is given as 1.6-2.5%. In series [4], the “diffusion coefficient without the binding effect, Dab” value amounted to 41 μm^2/s; the “drug in 3rd extract relative to the first extract” value is 1-3%; the “drug in 4th extract relative to the first extract” value is recorded as no more than 1%; the “drug in second extract, % of the first extract” value was 3-6%. In addition, the “time for the concentration to level off” value in [4] was “approximately 7.5 hours”. Besides, the “decrease of cross-linking efficacy (destructive tension of corneal strips)” value in series [5] is reported as 76%. Moreover, in series [6], the ionization in solution result is recorded as “negatively ionized”. In series [7], the “anterior stromal depth in which almost all keratocytes undergo apoptosis” value is listed as 300-350 μm and the “time to full recovery of the keratocyte population” value was 6-12 months. Further, the “side-effects in the posterior globe” value in series [8] was “almost complete loss of the photoreceptors, the outer nuclear layer and the retinal pigment epithelium (RPE)”. In series [9] (10 mM sodium azide), the “cross-linking rate as % of the rate without singlet oxygen quenchers” value was 12±20%. In [9] (setting [12]), the “modulus change during the last 10 minutes, no irradiation” value is 32±36 Pa and the “ΔG′ over the 30-minute period without irradiation” value is 72±136 Pa. Further, the “modulus change during the 10 minutes after cessation of irradiation” value in [9] (0.02% eosin Y, 6 mW/cm^2, 0.1% riboflavin, 3 mW/cm^2) is on record as 70±19 Pa. Moreover, the “change of storage modulus ΔG′ over the 30-minute irradiation” value in series [9] (0.02% eosin Y, 6 mW/cm^2 at 530±15 nm, 0.1% riboflavin, 3 mW/cm^2 at 370±12 nm) is 819±85 Pa. For the same compound, in series [9] (20 mM ascorbic acid), the “cross-linking rate as % of the rate without singlet oxygen quenchers” value is recorded as −32±11%. In addition, the “cross-linking rate as % of the rate without singlet oxygen quenchers” value in [9] (100 mM sodium azide) is −26±23%. In series [9] (0.12% riboflavin concentration, by interpolation), the “cross-linking rate as % of the optimal rate (0.05% riboflavin)” value was “approximately 78%”. In addition, the “cross-linking in the absence of oxygen” value in [9] (in argon) is “no cross-linking occurred”. Further, the “rate of change in storage modulus, Ġ′ (decreased by)” value in [9] (in the absence of oxygen (in argon), 30-minute irradiation) was 4.8±2.3 Pa/min. Besides, in series [9] (in the presence of oxygen (in air), 30-minute irradiation, 0.05% riboflavin 370 nm or 0.02% eosin Y 530 nm), the “rate of change in storage modulus, Ġ′ (increased by)” value worked out at 28.0±4.7 Pa/min.
For `N[C@@H](Cc1c[nH]cn1)C(=O)O` [Histidine], the “k1O2 × 10^−7 M^−1s^−1” value in series [2] is 3.2-3.4 × 10^−7 M^−1s^−1.
As to `CO[C@@]12[C@H](COC(N)=O)C3=C(C(=O)C(C)=C(N)C3=O)N1C[C@@H]1N[C@@H]12` [mitomycin-C], the “fraction of drug present on the surface of sponges able to diffuse into the sclera” value in [10] is given as roughly 5%.
With sulforhodamine, the “partition coefficient in the sclera” value in [11] is 13.6.
Consider `N[C@@H](Cc1ccc(O)cc1)C(=O)O` [Tyrosine], for which, in series [2], the “k1O2 × 10^−7 M^−1s^−1” value was 0.8 × 10^−7 M^−1s^−1.
Consider `N[C@@H](CS)C(=O)O` [Cystei e, Cysteine], for which, in series [2], the “k1O2 × 10^−7 M^−1s^−1” value was 0.89 × 10^−7 M^−1s^−1.
For `CSCC[C@H](N)C(=O)O` [Methionine], the “k1O2 × 10^−7 M^−1s^−1” value in series [2] is 1.6 × 10^−7 M^−1s^−1.
